Laboratory results reported in PubChem BioAssay AID330 (DTP/NCI, 2004).
Several values for one entry are separate records, joined by “and”; a condition that tells them apart may be missing. Equal entries are not always repeated. Toxic doses and inconclusive results are not listed.

Test system: P388 leukemia ip, CD2F1 mice, survival T/C
Test: NCI In Vivo Anticancer Drug Screen. Data for tumor model P388 Leukemia (intraperitoneal) in CD2F1 (CDF1) mice
Conditions: endpoint: median survival time, higher = longer survival
In short: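 Mice carrying the transplanted tumor received test compound or vehicle. Survival was recorded in each group, and the value is the treated-group measurement divided by that of the vehicle-treated control group.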

[1] = dose: 50.0 mg/kg/injection, schedule: Q01DX005 (ip), vehicle: Klucel (hydroxypropylcellulose) (HPC)
[2] = dose: 100.0 mg/kg/injection, schedule: Q01DX005 (ip), vehicle: Klucel (hydroxypropylcellulose) (HPC)
[3] = dose: 200.0 mg/kg/injection, schedule: Q01DX005 (ip), vehicle: Klucel (hydroxypropylcellulose) (HPC)
[4] = dose: 200.0 mg/kg/injection, schedule: Q01DX005 (ip), vehicle: saline with Tween-80
[5] = dose: 60.0 mg/kg/injection, schedule: Q01DX005 (ip), vehicle: saline with Tween-80
[6] = dose: 15.0 mg/kg/injection, schedule: Q01DX005 (ip), vehicle: saline with Tween-80
[7] = dose: 50.0 mg/kg/injection, schedule: Q04DX003 (ip), vehicle: saline with Tween-80

CC(C)(C)SC(=O)CC1(O)CCCCC1
T/C (dose: 25.0 mg/kg/injection, schedule: Q04DX002 (ip), vehicle: Klucel (hydroxypropylcellulose) (HPC)): 98 % of control
T/C (dose: 50.0 mg/kg/injection, schedule: Q04DX002 (ip), vehicle: Klucel (hydroxypropylcellulose) (HPC)): 100 % of control
T/C (dose: 100.0 mg/kg/injection, schedule: Q04DX002 (ip), vehicle: Klucel (hydroxypropylcellulose) (HPC)): 100 % of control

Cc1ccc(S(=O)(=O)N/N=C/c2c(C)nc3n2CCS3)cc1
T/C (dose: 100.0 mg/kg/injection, schedule: Q01DX001 (ip), vehicle: Klucel (hydroxypropylcellulose) (HPC)): 101 % of control
T/C (dose: 200.0 mg/kg/injection, schedule: Q01DX001 (ip), vehicle: Klucel (hydroxypropylcellulose) (HPC)): 102 % of control
T/C (dose: 400.0 mg/kg/injection, schedule: Q01DX001 (ip), vehicle: Klucel (hydroxypropylcellulose) (HPC)): 102 % of control

C=C1C(=O)OC2CC(C)C3(O)CCC(=O)C3(C)CC12 (centres undefined)
T/C (dose: 25.0 mg/kg/injection, schedule: Q01DX005 (ip), vehicle: Klucel (hydroxypropylcellulose) (HPC)): 98 % of control
T/C [1]: 90 % of control
T/C [2]: 100 % of control
T/C [3]: 102 % of control

C#CC1OC12CCC1C3CC=C4CC(O)CCC4(C)C3CCC12 (centres undefined)
T/C (dose: 50.0 mg/kg/injection, schedule: Q01DX009 (ip), vehicle: suspension in saline): 93 % of control
T/C (dose: 100.0 mg/kg/injection, schedule: Q01DX009 (ip), vehicle: suspension in saline): 94 % of control
T/C (dose: 200.0 mg/kg/injection, schedule: Q01DX009 (ip), vehicle: suspension in saline): 87 % of control

Cc1ccc(C(=O)Cc2nc3nnc(N)n3nc2CC(=O)c2ccc(C)cc2)cc1
T/C (dose: 50.0 mg/kg/injection, schedule: Q01DX005 (ip), vehicle: saline): 97 % of control
T/C (dose: 100.0 mg/kg/injection, schedule: Q01DX005 (ip), vehicle: saline): 100 % of control
T/C (dose: 200.0 mg/kg/injection, schedule: Q01DX005 (ip), vehicle: saline): 97 % of control

CC1=CN2C(c3ccccc3)=NON(c3ccc(C)cn3)C2C=C1 (centres undefined)
T/C [4]: 92 % of control

O=C(O)C(Cc1ccc(O)cc1)NS(=O)(=O)Cc1ccccc1 (centres undefined)
T/C (dose: 100.0 mg/kg/injection, schedule: Q01DX009 (ip), vehicle: DMSO): 99 % of control
T/C (dose: 200.0 mg/kg/injection, schedule: Q01DX009 (ip), vehicle: DMSO): 92 % of control

CCCCCCCCCCCCCCCCCC(=O)NC(Cc1ccc(N(CCCl)CCCl)cc1)C(=O)O (centres undefined)
T/C (dose: 1.88 mg/kg/injection, schedule: Q01DX009 (ip), vehicle: saline): 159 % of control
T/C (dose: 3.75 mg/kg/injection, schedule: Q01DX009 (ip), vehicle: saline): 172 % of control
T/C (dose: 3.75 mg/kg/injection, schedule: Q03HX008 (ip), vehicle: saline): 155 % of control
T/C (dose: 7.5 mg/kg/injection, schedule: Q01DX009 (ip), vehicle: saline): 236 % of control
T/C (dose: 7.5 mg/kg/injection, schedule: Q03HX008 (ip), vehicle: saline): 190 % of control
T/C (dose: 15.0 mg/kg/injection, schedule: Q01DX009 (ip), vehicle: saline): 277 % of control
T/C (dose: 15.0 mg/kg/injection, schedule: Q03HX008 (ip), vehicle: saline): 225 % of control

CCOC(=O)CC1CCCN1Sc1ccc([N+](=O)[O-])cc1[N+](=O)[O-] (centres undefined)
T/C (dose: 50.0 mg/kg/injection, schedule: Q01DX005 (ip), vehicle: saline with Tween-80): 100 % of control
T/C (dose: 100.0 mg/kg/injection, schedule: Q01DX005 (ip), vehicle: saline with Tween-80): 101 % of control
T/C [4]: 100 % of control

O=C(CCCl)Nc1ccc(CCC(=O)c2ccccc2NC(=O)CCCl)cc1
T/C [5]: 100 % of control
T/C (dose: 120.0 mg/kg/injection, schedule: Q01DX005 (ip), vehicle: saline with Tween-80): 90 % of control
T/C (dose: 240.0 mg/kg/injection, schedule: Q01DX005 (ip), vehicle: saline with Tween-80): 92 % of control

CC1=C(/C=C/C(C)=N/NC(N)=S)C(C)(C)CCC1
T/C (dose: 6.25 mg/kg/injection, schedule: Q01DX009 (ip), vehicle: saline with Tween-80): 100 % of control
T/C (dose: 12.5 mg/kg/injection, schedule: Q01DX009 (ip), vehicle: saline with Tween-80): 115 % of control

O=C1C2C3CCC(O3)C2C(=O)N1SC(Cl)(Cl)Cl (centres undefined)
T/C (dose: 3.12 mg/kg/injection, schedule: Q01DX009 (ip), vehicle: saline): 101 % of control
T/C (dose: 6.25 mg/kg/injection, schedule: Q01DX009 (ip), vehicle: saline): 108 % of control
T/C (dose: 12.5 mg/kg/injection, schedule: Q01DX009 (ip), vehicle: saline): 100 % of control

CCCCC1CN1C(=N)OCC (centres undefined)
T/C [6]: 100 % of control
T/C (dose: 25.0 mg/kg/injection, schedule: Q01DX005 (ip), vehicle: saline): 100 % of control
T/C (dose: 30.0 mg/kg/injection, schedule: Q01DX005 (ip), vehicle: saline with Tween-80): 96 % of control
T/C [5]: 101 % of control and 95 % of control

NC[CH2][Sn]([c]1ccccc1)([CH]1CCCCC1)[CH]1CCCCC1
T/C (dose: 3.75 mg/kg/injection, schedule: Q01DX005 (ip), vehicle: saline with Tween-80): 100 % of control
T/C (dose: 7.5 mg/kg/injection, schedule: Q01DX005 (ip), vehicle: saline with Tween-80): 93 % of control
T/C [6]: 99 % of control
T/C [5]: 92 % of control

COc1cc2c(O)c(c1)CCCC1=CC(=O)C=C(CCC2)C1=O
T/C (dose: 100.0 mg/kg/injection, schedule: Q01DX001 (ip), vehicle: saline with Tween-80): 99 % of control
T/C (dose: 200.0 mg/kg/injection, schedule: Q01DX001 (ip), vehicle: saline with Tween-80): 101 % of control
T/C (dose: 400.0 mg/kg/injection, schedule: Q01DX001 (ip), vehicle: saline with Tween-80): 94 % of control

O=S(=O)(OCC#CCOS(=O)(=O)c1ccc(Cl)c(Cl)c1)c1ccc(Cl)c(Cl)c1
T/C (dose: 12.5 mg/kg/injection, schedule: Q01DX009 (ip), vehicle: Klucel (hydroxypropylcellulose) (HPC)): 95 % of control
T/C (dose: 25.0 mg/kg/injection, schedule: Q01DX009 (ip), vehicle: Klucel (hydroxypropylcellulose) (HPC)): 92 % of control
T/C (dose: 50.0 mg/kg/injection, schedule: Q01DX009 (ip), vehicle: Klucel (hydroxypropylcellulose) (HPC)): 91 % of control
T/C (dose: 100.0 mg/kg/injection, schedule: Q01DX009 (ip), vehicle: Klucel (hydroxypropylcellulose) (HPC)): 92 % of control

CNc1cccc2c1C(=O)c1ccccc1C2=O
T/C [7]: 93 % of control
T/C (dose: 100.0 mg/kg/injection, schedule: Q04DX003 (ip), vehicle: saline with Tween-80): 91 % of control
T/C (dose: 200.0 mg/kg/injection, schedule: Q04DX003 (ip), vehicle: saline with Tween-80): 97 % of control
T/C (dose: 400.0 mg/kg/injection, schedule: Q04DX003 (ip), vehicle: saline with Tween-80): 90 % of control

Cc1c2cc[n+](Cc3ccc(I)cc3)cc2c(C)c2c1[nH]c1ccccc12
T/C (dose: 11.75 mg/kg/injection, schedule: Q04DX002 (ip), vehicle: saline with Tween-80): 112 % of control
T/C (dose: 23.5 mg/kg/injection, schedule: Q04DX002 (ip), vehicle: saline with Tween-80): 116 % of control
T/C (dose: 47.0 mg/kg/injection, schedule: Q04DX002 (ip), vehicle: saline with Tween-80): 124 % of control

c1cc2cc(-c3ccc4oc(C5=NCCN5)cc4c3)[nH]c2cc1C1=NCCN1
T/C [1]: 163 % of control
T/C [2]: 160 % of control
T/C [3]: 193 % of control

C=CCN1CCCC1=O
T/C (dose: 100.0 mg/kg/injection, schedule: Q04DX003 (ip), vehicle: saline): 100 % of control
T/C (dose: 200.0 mg/kg/injection, schedule: Q04DX003 (ip), vehicle: saline): 100 % of control
T/C (dose: 400.0 mg/kg/injection, schedule: Q04DX003 (ip), vehicle: saline): 95 % of control

O=c1c2ccccc2sc2c(N(CCO)CCO)cc3c(c12)CCCC3
T/C (dose: 25.0 mg/kg/injection, schedule: Q01DX005 (ip), vehicle: distilled water + Tween-80): 103 % of control
T/C (dose: 50.0 mg/kg/injection, schedule: Q01DX005 (ip), vehicle: distilled water + Tween-80): 101 % of control
T/C (dose: 100.0 mg/kg/injection, schedule: Q01DX005 (ip), vehicle: distilled water + Tween-80): 100 % of control
T/C (dose: 200.0 mg/kg/injection, schedule: Q01DX005 (ip), vehicle: distilled water + Tween-80): 95 % of control

Nc1[nH]c(=S)[nH]c(=O)c1N=Cc1ccc2c(c1)OCO2
T/C (dose: 100.0 mg/kg/injection, schedule: Q04DX003 (ip), vehicle: Klucel (hydroxypropylcellulose) (HPC)): 108 % of control and 113 % of control
T/C (dose: 200.0 mg/kg/injection, schedule: Q04DX003 (ip), vehicle: Klucel (hydroxypropylcellulose) (HPC)): 112 % of control and 114 % of control

O=C(C=C(C(F)(F)F)C(F)(F)F)c1ccco1
T/C (dose: 12.5 mg/kg/injection, schedule: Q04DX003 (ip), vehicle: saline with Tween-80): 100 % of control
T/C (dose: 25.0 mg/kg/injection, schedule: Q04DX003 (ip), vehicle: saline with Tween-80): 109 % of control
T/C [7]: 95 % of control
